The text below walks through data of PMC7526454 (JCI Insight, 2020).

Data set [1] addresses T1, human serum albumin (Homo sapiens, UniProt P02768).
T1 construct: For assays containing albumin from human serum; purchased MilliporeSigma A3782; host or cells: human serum
In words: Ligand affinity for albumin by albumin-shift cAMP assays (Schild regression). The conditions noted are these: at 640 μM albumin, calculated from KA. The class given is in vitro ADME. As for the experimental part:
Clonal HEK293 cells stably expressing either untagged human GIPR or human GLP-1R at various levels of receptor density were used for measurement of cAMP accumulation using the Gs Dynamic Assay and homogenous time-resolved fluorescence (62AM4PEJ, PerkinElmer). Corning 3570 white microtiter plates were used to collect 10 μL assay medium (DMEM, 31053, [Thermo Fisher Scientific], 2 mM Glutamax [35050, Thermo Fisher Scientific], 20 mM HEPES, 0.1% w/v bovine casein [4765, MilliporeSigma], and 250 μM isobutylmethylxanthine [IBMX] phosphodiesterase inhibitor) from a Multidrop Combi dispenser (Thermo Fisher Scientific). […] Vials of assay-ready cells were rapidly thawed from cryopreservation on the day of the assay. […] Time-resolved fluorescence was quantitated with a Pherastar FSX multilabel reader (BMG Labtech). Fluorescence data were analyzed by the ratio method, calibrated to external standards in a parallel processed plate, and reported as percent activation compared with vehicle minimum and native peptide maximum control wells. […]
Methods to quantify and predict the effect of albumin binding on biological activity in enzyme assays, receptor binding assays, and cell-based assays exist, but they are not currently widely employed ([57]–[59]). The general approach involves performing a bioassay in an albumin-free system and quantifying the effect of systematic titrations of albumin into the system. […]

For data set [2] the following is noted: steady state plasma total concentration, cited from earlier work.

Structures are written as SMILES. Read-outs that look alike come from different tables or passages of the source.

T1 sequence (P02768 25-609): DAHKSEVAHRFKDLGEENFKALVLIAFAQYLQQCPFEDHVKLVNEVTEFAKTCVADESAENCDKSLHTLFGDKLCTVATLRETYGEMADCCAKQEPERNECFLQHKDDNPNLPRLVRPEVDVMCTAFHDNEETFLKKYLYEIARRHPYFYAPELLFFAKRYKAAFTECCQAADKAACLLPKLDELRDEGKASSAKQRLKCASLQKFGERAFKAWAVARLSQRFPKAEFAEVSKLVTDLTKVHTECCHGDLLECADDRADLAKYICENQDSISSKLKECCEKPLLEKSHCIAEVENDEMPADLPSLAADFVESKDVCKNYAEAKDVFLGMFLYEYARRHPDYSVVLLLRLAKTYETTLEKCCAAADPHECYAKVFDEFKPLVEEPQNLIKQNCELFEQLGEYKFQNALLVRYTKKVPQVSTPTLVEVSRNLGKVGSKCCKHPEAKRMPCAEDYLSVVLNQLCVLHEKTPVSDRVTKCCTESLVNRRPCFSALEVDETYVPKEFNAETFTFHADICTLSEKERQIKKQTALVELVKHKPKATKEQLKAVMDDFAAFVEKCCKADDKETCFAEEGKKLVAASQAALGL

Consider `CC[C@H](C)[C@H](NC(=O)[C@H](Cc1ccccc1)NC(=O)[C@H](CCC(=O)O)NC(=O)[C@H](CCCCNC(=O)COCCOCCNC(=O)COCCOCCNC(=O)CC[C@H](NC(=O)CCCCCCCCCCCCCCCCC(=O)O)C(=O)O)NC(=O)[C@H](C)NC(=O)[C@H](C)NC(=O)[C@H](CCC(N)=O)NC(=O)CNC(=O)[C@H](CCC(=O)O)NC(=O)[C@H](CC(C)C)NC(=O)[C@H](Cc1ccc(O)cc1)NC(=O)[C@H](CO)NC(=O)[C@H](CO)NC(=O)[C@@H](NC(=O)[C@H](CC(=O)O)NC(=O)[C@H](CO)NC(=O)[C@@H](NC(=O)[C@H](Cc1ccccc1)NC(=O)[C@@H](NC(=O)CNC(=O)[C@H](CCC(=O)O)NC(=O)C(C)(C)NC(=O)[C@@H](N)Cc1cnc[nH]1)[C@@H](C)O)[C@@H](C)O)C(C)C)C(=O)N[C@@H](C)C(=O)N[C@@H](Cc1c[nH]c2ccccc12)C(=O)N[C@@H](CC(C)C)C(=O)N[C@H](C(=O)N[C@@H](CCCNC(=N)N)C(=O)NCC(=O)N[C@@H](CCCNC(=N)N)C(=O)NCC(=O)O)C(C)C` [Semaglutide, semaglutide], for which the predicted unbound fraction in data set [1] was 0.00072. Also, the “Css (total)” value is listed as 15 nM in data set [2] (semaglutide 0.5 mg clinical dose) and 30 nM in data set [2] (semaglutide 1 mg clinical dose).
